Test results taken from PubChem BioAssay AID2004 (Sanford-Burnham Center for Chemical Genomics, 2009).

Target: Dual specificity protein phosphatase 3 (Homo sapiens) (UniProt P51452)
Assay: PubChem AID 2004
Details: recombinant VHR phosphatase, colorimetric substrate read-out

Dual specificity protein phosphatase 3 (Homo sapiens), sequence (P51452 whole entry, looked up): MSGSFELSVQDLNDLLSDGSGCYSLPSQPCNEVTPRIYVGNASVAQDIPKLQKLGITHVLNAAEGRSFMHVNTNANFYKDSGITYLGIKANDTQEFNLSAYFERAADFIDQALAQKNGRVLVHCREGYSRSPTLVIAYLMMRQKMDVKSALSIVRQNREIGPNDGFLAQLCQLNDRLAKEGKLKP

Row | Structure (SMILES) | Ki [µM]
1 | Cc1ccc(C)n1-c1ccc(C(=O)O)c(O)c1 | 12.8
2 | COc1ccc(N2C(=O)/C(=C/c3ccc(I)o3)C(=O)NC2=S)cc1 | 4.44
3 | CC1=C(C#N)c2nc(N)c(C#N)c(C)c2/C1=C/c1ccc(-c2ccc(C(=O)O)c(Cl)c2)o1 | 3.87
4 | O=C1NC(=O)N(c2cccc(Br)c2)C(=O)/C1=C/c1ccc(-c2ccc(C(=O)O)cc2)o1 | 16.2
5 | O=C(O)C(Cc1ccccc1)N1C(=O)/C(=C/C=C/c2ccccc2)SC1=S (stereo not drawn) | 2.01
6 | O=C1NC(=S)N(c2ccc(F)cc2)C(=O)/C1=C/c1ccc(Br)o1 | 12.1
7 | S=C(Nc1ccc2c(c1)oc1ccccc12)Nc1cccc2ccccc12 | 2.94
8 | O=C1C(Cl)=C/C(=N\S(=O)(=O)c2ccc(Cl)cc2)C(Cl)=C1Cl | 13.4
9 | O=C(O)c1cccc(-c2ccc(/C=N/Nc3ccc([N+](=O)[O-])cn3)o2)c1 | 13.8
10 | Cc1ccc(C)n1-c1ccc(SCC(=O)O)cc1 | 2.09
11 | O=C1/C(=C/C=C/c2ccccc2)SC(=S)N1CCS(=O)(=O)O | 0.809
12 | C=CCN1C(=O)/C(=C\C=C\c2ccco2)C(=O)NC1=S | 15.8
13 | COc1ccc(OC)c2c1C(=O)c1ccccc1C2=O | 3.07
14 | CCOC(=O)c1[nH]nc2c1C(=O)N(c1ccc(Br)cc1)C2=O | 2.64
15 | O=C(/C=C/c1ccco1)/C=C/c1ccc(-c2ccc(Cl)c(Cl)c2)o1 | 15.9
16 | O=C(/C=C/c1ccc(-c2ccccc2[N+](=O)[O-])o1)Nc1ccc(-c2nc3ccccc3o2)cc1 | 1.76
17 | O=C1c2cccc3c4ccccc4n(c23)C(=O)C1(O)O | 13.8
18 | O=c1[nH]c(=S)n(-c2cccc(Cl)c2)c(O)c1/C=C1/C=CC=N1 | 3.49
